Experimental data: ChEMBL document CHEMBL5131445, “Optimization of a novel piperazinone series as potent selective peripheral covalent BTK inhibitors” (Bioorg Med Chem Lett, 2022)

Tests used:
[1] = biological target: Receptor tyrosine-protein kinase erbB-4 (Homo sapiens, UniProt Q15303); experiment: Binding affinity to ERBB4 (unknown origin) assessed as dissociation constant by KINOMEscan analysis
[2] = biological target: T1, Tyrosine-protein kinase JAK3 (Homo sapiens, UniProt P52333); experiment: Binding affinity to JAK3 (unknown origin) assessed as dissociation constant by KINOMEscan analysis
T1 sequence (P52333 whole entry): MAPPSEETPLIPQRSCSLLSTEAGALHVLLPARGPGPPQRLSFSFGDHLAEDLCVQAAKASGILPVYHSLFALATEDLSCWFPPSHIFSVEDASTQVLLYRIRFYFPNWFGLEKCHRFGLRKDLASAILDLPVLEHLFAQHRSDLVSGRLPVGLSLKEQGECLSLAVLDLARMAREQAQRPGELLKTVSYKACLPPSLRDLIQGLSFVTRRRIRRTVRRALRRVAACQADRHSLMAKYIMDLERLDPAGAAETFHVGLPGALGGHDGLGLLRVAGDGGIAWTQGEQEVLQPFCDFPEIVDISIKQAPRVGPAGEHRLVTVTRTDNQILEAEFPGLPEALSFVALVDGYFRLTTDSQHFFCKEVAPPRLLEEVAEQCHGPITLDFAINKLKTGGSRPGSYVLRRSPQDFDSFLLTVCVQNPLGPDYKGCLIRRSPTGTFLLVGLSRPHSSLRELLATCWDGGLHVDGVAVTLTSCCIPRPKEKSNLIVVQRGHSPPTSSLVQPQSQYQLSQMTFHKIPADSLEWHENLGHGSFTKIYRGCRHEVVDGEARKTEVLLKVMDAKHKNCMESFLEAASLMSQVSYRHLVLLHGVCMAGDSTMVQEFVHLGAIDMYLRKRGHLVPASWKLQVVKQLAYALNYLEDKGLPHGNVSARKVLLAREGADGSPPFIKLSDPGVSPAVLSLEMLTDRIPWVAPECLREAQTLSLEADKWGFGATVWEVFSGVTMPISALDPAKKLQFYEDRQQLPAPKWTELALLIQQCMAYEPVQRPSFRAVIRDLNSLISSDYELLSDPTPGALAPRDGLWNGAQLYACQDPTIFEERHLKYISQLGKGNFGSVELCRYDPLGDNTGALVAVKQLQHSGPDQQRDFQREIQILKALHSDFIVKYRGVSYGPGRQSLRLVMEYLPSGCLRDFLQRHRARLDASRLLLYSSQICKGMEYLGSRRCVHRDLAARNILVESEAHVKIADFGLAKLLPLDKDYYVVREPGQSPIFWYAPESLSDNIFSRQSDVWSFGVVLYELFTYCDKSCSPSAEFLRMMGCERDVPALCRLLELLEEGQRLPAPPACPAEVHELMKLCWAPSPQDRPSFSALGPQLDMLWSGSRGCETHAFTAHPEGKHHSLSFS

Cytochrome P450 1A2 = biological target: T2, Cytochrome P450 1A2 (Homo sapiens, UniProt P05177); experiment: Inhibition of human CYP1A2; format: ADME
T2 sequence (P05177 whole entry): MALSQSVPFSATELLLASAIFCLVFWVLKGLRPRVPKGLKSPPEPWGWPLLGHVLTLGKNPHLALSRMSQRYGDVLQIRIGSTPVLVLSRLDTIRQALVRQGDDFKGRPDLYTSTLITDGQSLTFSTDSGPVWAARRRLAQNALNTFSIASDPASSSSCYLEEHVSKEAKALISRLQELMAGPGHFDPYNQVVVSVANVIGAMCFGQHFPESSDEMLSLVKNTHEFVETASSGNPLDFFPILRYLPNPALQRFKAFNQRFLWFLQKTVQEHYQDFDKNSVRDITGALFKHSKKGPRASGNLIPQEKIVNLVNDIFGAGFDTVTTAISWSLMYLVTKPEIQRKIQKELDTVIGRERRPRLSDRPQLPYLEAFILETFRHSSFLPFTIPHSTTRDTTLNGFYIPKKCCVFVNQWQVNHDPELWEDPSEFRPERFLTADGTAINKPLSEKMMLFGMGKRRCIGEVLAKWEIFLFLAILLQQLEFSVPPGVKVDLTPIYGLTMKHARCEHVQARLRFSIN

Cytochrome P450 2B6 = biological target: T3, Cytochrome P450 2B6 (Homo sapiens, UniProt P20813); experiment: Inhibition of human CYP2B6; format: ADME
T3 sequence (P20813 whole entry): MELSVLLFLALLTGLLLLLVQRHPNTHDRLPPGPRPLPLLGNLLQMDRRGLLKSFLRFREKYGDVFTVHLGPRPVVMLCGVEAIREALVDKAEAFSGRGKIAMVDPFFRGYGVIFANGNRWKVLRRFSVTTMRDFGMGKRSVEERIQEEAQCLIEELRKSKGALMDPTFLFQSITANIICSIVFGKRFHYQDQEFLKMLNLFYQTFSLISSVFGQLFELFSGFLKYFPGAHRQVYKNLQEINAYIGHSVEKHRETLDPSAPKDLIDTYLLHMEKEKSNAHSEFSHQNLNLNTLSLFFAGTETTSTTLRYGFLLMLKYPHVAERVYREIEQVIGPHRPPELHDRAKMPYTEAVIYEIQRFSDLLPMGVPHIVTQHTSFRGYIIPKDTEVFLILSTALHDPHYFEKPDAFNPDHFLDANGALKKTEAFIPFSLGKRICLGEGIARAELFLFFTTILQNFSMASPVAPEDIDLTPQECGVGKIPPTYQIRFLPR

Cytochrome P450 2C8 = biological target: T4, Cytochrome P450 2C8 (Homo sapiens, UniProt P10632); experiment: Inhibition of human CYP2C8; format: ADME
T4 sequence (P10632 whole entry): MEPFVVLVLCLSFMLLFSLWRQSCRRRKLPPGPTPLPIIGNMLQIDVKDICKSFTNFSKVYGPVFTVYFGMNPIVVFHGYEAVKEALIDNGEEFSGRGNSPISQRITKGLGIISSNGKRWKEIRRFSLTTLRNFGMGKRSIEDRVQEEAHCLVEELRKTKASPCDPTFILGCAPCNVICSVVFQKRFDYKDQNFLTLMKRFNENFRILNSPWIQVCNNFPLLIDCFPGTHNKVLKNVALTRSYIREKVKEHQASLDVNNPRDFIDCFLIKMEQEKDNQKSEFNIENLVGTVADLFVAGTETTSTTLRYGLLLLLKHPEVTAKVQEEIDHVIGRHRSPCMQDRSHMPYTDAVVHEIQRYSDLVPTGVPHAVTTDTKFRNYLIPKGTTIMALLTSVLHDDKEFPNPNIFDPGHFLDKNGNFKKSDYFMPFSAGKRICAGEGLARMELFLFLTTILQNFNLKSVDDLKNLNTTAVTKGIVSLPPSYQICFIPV

[3] = biological target: Tyrosine-protein kinase BTK (Homo sapiens, UniProt Q06187); experiment: Inhibition of BTK in human Ramos cells assessed as target occupancy; format: cell-based
Chain of Tyrosine-protein kinase BTK (Q06187 whole entry): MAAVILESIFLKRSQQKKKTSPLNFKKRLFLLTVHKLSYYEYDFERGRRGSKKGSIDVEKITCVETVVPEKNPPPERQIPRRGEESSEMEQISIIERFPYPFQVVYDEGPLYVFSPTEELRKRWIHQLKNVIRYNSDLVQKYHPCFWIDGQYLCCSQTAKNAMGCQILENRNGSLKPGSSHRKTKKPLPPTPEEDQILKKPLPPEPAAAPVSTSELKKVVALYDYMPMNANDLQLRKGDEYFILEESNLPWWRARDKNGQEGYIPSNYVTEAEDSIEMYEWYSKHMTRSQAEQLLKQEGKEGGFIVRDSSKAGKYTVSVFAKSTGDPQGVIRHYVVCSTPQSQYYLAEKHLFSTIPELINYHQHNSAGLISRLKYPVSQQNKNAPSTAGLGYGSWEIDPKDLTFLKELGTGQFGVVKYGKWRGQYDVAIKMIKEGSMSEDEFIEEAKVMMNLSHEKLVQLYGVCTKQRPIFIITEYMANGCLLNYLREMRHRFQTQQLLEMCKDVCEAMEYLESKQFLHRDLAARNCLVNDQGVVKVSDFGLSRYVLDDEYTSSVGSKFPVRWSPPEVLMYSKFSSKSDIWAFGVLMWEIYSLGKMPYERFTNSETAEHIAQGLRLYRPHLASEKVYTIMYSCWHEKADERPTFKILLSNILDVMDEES

Chain of Receptor tyrosine-protein kinase erbB-4 (Q15303 whole entry): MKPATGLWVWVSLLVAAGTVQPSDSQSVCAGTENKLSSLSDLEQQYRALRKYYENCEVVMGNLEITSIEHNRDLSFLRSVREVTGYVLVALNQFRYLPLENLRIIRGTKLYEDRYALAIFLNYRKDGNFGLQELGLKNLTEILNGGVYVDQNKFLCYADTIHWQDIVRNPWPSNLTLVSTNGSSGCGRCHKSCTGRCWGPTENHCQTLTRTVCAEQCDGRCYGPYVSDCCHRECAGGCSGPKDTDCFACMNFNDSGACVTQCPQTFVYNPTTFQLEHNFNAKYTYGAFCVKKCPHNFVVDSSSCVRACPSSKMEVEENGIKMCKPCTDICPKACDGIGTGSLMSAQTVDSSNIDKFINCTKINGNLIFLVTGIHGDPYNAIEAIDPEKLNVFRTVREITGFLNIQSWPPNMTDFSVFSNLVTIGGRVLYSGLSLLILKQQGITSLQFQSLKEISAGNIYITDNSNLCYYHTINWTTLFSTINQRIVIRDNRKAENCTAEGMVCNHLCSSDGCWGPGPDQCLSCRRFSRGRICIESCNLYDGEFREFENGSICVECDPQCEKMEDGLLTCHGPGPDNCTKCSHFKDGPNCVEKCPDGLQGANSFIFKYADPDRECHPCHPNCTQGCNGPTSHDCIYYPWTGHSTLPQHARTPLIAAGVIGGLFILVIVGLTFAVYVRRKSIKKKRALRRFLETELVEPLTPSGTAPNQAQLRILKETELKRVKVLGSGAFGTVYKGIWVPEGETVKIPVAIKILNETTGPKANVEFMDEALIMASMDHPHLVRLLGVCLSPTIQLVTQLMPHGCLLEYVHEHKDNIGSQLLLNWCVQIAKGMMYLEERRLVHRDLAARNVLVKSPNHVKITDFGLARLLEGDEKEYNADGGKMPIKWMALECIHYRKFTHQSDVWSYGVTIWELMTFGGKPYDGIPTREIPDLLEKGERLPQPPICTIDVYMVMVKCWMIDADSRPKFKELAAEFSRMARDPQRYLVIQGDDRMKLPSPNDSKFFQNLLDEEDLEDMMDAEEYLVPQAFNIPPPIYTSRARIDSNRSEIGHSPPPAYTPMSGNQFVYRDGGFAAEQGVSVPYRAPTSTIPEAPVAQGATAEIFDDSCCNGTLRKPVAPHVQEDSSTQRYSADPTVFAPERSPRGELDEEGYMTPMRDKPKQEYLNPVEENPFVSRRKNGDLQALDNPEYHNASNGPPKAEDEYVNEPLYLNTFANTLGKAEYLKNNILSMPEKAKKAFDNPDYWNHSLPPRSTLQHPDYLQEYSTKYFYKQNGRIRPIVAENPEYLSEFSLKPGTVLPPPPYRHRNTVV

C=CC(=O)N(C)CCOc1c(N)ncnc1-c1ccc(CN2CCN(CC(C)C)CC2=O)c(C)c1
Kd [1]: 890 nM | Kd [2]: 2900 nM | IC50 (Cytochrome P450 1A2): > 10000 nM | IC50 (Cytochrome P450 2B6): > 10000 nM | IC50 (Cytochrome P450 2C8): > 10000 nM | IC50 [3]: 3.1 nM
